From patent publication US9663513B2, “Pyrimidine PDE10 inhibitors” (Merck Sharp & Dohme Corp., priority 2012, dated 2017)

Target: human PDE10A2 (Homo sapiens (Human), UniProt Q9Y233)
Assay: PDE10 fluorescence polarization (IMAP FP) inhibition assay
Format: biochemical
Details: human PDE10A2 from transfected AD293 cells; FAM-labeled cAMP 50 nM; apparent inhibition constant; read-out: PDE10A Ki
Outline: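 Cytoplasmic lysate of AD293 cells transiently expressing human PDE10A2 (enzyme level giving 20% conversion) incubated with 50 nM FAM-cAMP in pH 7.2 Tris/MgCl2 buffer, 30 min at room temperature. IMAP binding solution added, FP read after ≥1 h; 10-point 3-fold compound titrations fitted to a four-parameter equation.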

human PDE10A2, sequence (Q9Y233 267-1055): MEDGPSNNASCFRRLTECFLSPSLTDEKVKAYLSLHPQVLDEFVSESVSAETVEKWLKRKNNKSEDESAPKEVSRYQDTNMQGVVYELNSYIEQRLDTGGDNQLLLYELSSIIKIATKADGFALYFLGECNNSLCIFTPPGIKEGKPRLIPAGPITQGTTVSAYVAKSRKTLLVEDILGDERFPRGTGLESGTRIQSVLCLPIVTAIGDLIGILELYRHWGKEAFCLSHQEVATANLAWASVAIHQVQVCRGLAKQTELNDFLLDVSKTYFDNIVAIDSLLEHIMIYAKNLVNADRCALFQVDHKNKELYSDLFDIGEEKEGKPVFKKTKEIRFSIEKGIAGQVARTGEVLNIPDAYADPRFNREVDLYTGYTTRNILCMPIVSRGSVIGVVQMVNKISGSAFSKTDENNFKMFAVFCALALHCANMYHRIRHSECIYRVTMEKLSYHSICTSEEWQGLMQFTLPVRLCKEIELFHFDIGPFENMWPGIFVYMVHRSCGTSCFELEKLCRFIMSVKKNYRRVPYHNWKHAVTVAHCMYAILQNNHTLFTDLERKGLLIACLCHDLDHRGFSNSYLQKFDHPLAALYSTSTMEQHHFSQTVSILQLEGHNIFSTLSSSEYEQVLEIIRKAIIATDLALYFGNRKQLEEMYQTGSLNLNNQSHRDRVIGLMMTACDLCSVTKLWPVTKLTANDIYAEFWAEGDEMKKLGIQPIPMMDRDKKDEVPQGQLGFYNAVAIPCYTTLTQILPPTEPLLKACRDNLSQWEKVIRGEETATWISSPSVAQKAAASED

SMILES	Ki
COc1ccc([C@H]2C[C@@H]2COc2nc(C)ncc2-c2cc(Cl)ncc2OC)nc1 [Example 111, 5-(2-chloro-5-methoxypyridin-4-yl)-4-(((1S,2S)-2-(5-methoxypyridin-2-yl)cyclopropyl)methoxy)-2-methylpyrimidine]	0.79 nM
COc1ccc([C@H]2C[C@@H]2COc2nc(C)ncc2-c2cc(Cl)ncc2OCOCC[Si](C)(C)C)nc1 [Example 112, 5-(2-chloro-5-((2-(trimethylsilyl)ethoxy)methoxy)pyridin-4-yl)-4-(((1S,2S)-2-(5-methoxypyridin-2-yl)cyclopropyl)methoxy)-2-methylpyrimidine]	19.2 nM
COc1ccc([C@H]2C[C@@H]2COc2nc(C)ncc2-c2cc(C#N)n(C)c2)nc1 [Example 113, 4-(4-(((1S,2S)-2-(5-methoxypyridin-2-yl)cyclopropyl)methoxy)-2-methylpyrimidin-5-yl)-1-methyl-1H-pyrrole-2-carbonitrile]	0.89 nM
COc1ccc([C@H]2C[C@@H]2COc2nc(C)ncc2-c2cn(C)nc2C(O)C(F)(F)F)nc1 (stereo partly drawn) [Example 114, 2,2,2-trifluoro-1-(4-(4-(((1S,2S)-2-(5-methoxypyridin-2-yl)cyclopropyl)methoxy)-2-methylpyrimidin-5-yl)-1-methyl-1H-pyrazol-3-yl)ethanol]	0.93 nM
COc1ccc([C@H]2C[C@@H]2COc2nc(C)ncc2C2=CCOCC2)nc1 [Example 115, 5-(3,6-dihydro-2H-pyran-4-yl)-4-(((1S,2S)-2-(5-methoxypyridin-2-yl)cyclopropyl)methoxy)-2-methylpyrimidine]	0.76 nM
Cc1ncc(-c2cn(C)nc2CO)c(OC[C@H]2C[C@@H]2c2ccccn2)n1 [Example 116, (1-methyl-4-(2-methyl-4-(((1S,2S)-2-(pyridin-2-yl)cyclopropyl)methoxy)pyrimidin-5-yl)-1H-pyrazol-3-yl)methanol]	9.01 nM
Cc1ncc(-c2ccc(C(F)(F)F)nc2)c(OC[C@H]2C[C@@H]2c2ccccn2)n1 [Example 117, 2-methyl-4-(((1S,2S)-2-(pyridin-2-yl)cyclopropyl)methoxy)-5-(6-(trifluoromethyl)pyridin-3-yl)pyrimidine]	23.5 nM
Cc1ncc(-c2ccc(C(C)(C)O)nc2C)c(OC[C@H]2C[C@@H]2c2ccccn2)n1 [Example 119, 2-(6-methyl-5-(2-methyl-4-(((1S,2S)-2-(pyridin-2-yl)cyclopropyl)methoxy)pyrimidin-5-yl)pyridin-2-yl)propan-2-ol]	2.15 nM
Cc1ncc(-c2ccc(C3(O)CCCC3)nc2)c(OC[C@H]2C[C@@H]2c2ccccn2)n1 [Example 120, 1-(5-(2-methyl-4-(((1S,2S)-2-(pyridin-2-yl)cyclopropyl)methoxy)pyrimidin-5-yl)pyridin-2-yl)cyclopentanol]	1.04 nM
Cc1ncc(-c2ccc(C(C)O)cc2)c(OC[C@H]2C[C@@H]2c2ccccn2)n1 (stereo partly drawn) [Example 121, 1-(4-(2-methyl-4-(((1S,2S)-2-(pyridin-2-yl)cyclopropyl)methoxy)pyrimidin-5-yl)phenyl)ethanol]	5.05 nM
Cc1ncc(-c2ccc(C(C)O)cc2)c(OC[C@H]2C[C@@H]2c2ccccn2)n1 (stereo partly drawn) [Example 122, 1-(4-(2-methyl-4-(((1S,2S)-2-(pyridin-2-yl)cyclopropyl)methoxy)pyrimidin-5-yl)phenyl)ethanol]	2.85 nM
Cc1ncc(-c2ccc(C(C)(C)O)nc2)c(OC[C@H]2C[C@@H]2c2ccccn2)n1 [Example 123, 2-(5-(2-methyl-4-(((1S,2S)-2-(pyridin-2-yl)cyclopropyl)methoxy)pyrimidin-5-yl)pyridin-2-yl)propan-2-ol]	1.09 nM
Cc1ncc(-c2ccc(C(C)(C)O)nc2)c(OC[C@@H]2C[C@H]2c2ccc(Br)cn2)n1 [Example 124, 2-(5-(4-(((1R,2R)-2-(5-bromopyridin-2-yl)cyclopropyl)methoxy)-2-methylpyrimidin-5-yl)pyridin-2-yl)propan-2-ol]	8.57 nM
COc1cc(-c2cnc(C)nc2OC[C@H]2C[C@@H]2c2ccc(C)cn2)cc2nccn12 [Example 132, 5-methoxy-7-(2-methyl-4-(((1S,2S)-2-(5-methylpyridin-2-yl)cyclopropyl)methoxy)pyrimidin-5-yl)imidazo[1,2-a]pyridine]	0.81 nM
Cc1ncc(-c2cccn3ccnc23)c(OC[C@H]2C[C@@H]2c2ccc3ccccc3n2)n1 [Example 134, 2-((1S,2S)-2-((5-(imidazo[1,2-a]pyridin-8-yl)-2-methylpyrimidin-4-yloxy)methyl)cyclopropyl)quinoline]	4.03 nM
Cc1ccc([C@H]2C[C@@H]2COc2nc(C)ncc2-c2cccn3ccnc23)nc1 [Example 135, 8-(2-methyl-4-(((1S,2S)-2-(5-methylpyridin-2-yl)cyclopropyl)methoxy)pyrimidin-5-yl)imidazo[1,2-a]pyridine]	37.3 nM
Cc1ccc([C@H]2C[C@@H]2COc2nc(C)ncc2-c2ccc(C(O)C(C)C)nc2)nc1 (stereo partly drawn) [Example 140, 2-methyl-1-(5-(2-methyl-4-(((1S,2S)-2-(5-methylpyridin-2-yl)cyclopropyl)methoxy)pyrimidin-5-yl)pyridin-2-yl)propan-1-ol]	1.63 nM

The next molecules have a lower Ki than those just listed; values first:

Ki	SMILES
0.1 nM	Cc1ncc(-c2cnc(C(C)(C)O)cc2C)c(OC[C@H]2C[C@@H]2c2ccccn2)n1 [Example 118, 2-(4-methyl-5-(2-methyl-4-(((1S,2S)-2-(pyridin-2-yl)cyclopropyl)methoxy)pyrimidin-5-yl)pyridin-2-yl)propan-2-ol]
0.4 nM	Cc1ccc([C@H]2C[C@@H]2COc2nc(C)ncc2-c2cn(C)nc2C(F)F)nc1 [Example 125, 5-(3-(difluoromethyl)-1-methyl-1H-pyrazol-4-yl)-2-methyl-4-(((1S,2S)-2-(5-methylpyridin-2-yl)cyclopropyl)methoxy)pyrimidine]
0.51 nM	Cc1ncc(-c2ncccc2F)c(OC[C@H]2C[C@@H]2c2ccc3ccccc3n2)n1 [Example 127, 2-((1S,2S)-2-((5-(3-fluoropyridin-2-yl)-2-methylpyrimidin-4-yloxy)methyl)cyclopropyl)quinoline]
0.12 nM	Cc1ccnc(-c2cnc(C)nc2OC[C@H]2C[C@@H]2c2ccc3ccccc3n2)c1 [Example 128, 2-((1S,2S)-2-((2-methyl-5-(4-methylpyridin-2-yl)pyrimidin-4-yloxy)methyl)cyclopropyl)quinoline]
0.02 nM	Cc1ncc(-c2ccc3ncc(C)n3c2)c(OC[C@H]2C[C@@H]2c2ccc3ccccc3n2)n1 [Example 129, 2-((1S,2S)-2-((2-methyl-5-(3-methylimidazo[1,2-a]pyridin-6-yl)pyrimidin-4-yloxy)methyl)cyclopropyl)quinoline]
0.39 nM	Cc1ccc([C@H]2C[C@@H]2COc2nc(C)ncc2-c2ccc3ncc(C)n3c2)nc1 [Example 130, 3-methyl-6-(2-methyl-4-(((1S,2S)-2-(5-methylpyridin-2-yl)cyclopropyl)methoxy)pyrimidin-5-yl)imidazo[1,2-a]pyridine]
0.04 nM	COc1cc(-c2cnc(C)nc2OC[C@H]2C[C@@H]2c2ccc3ccccc3n2)cc2nccn12 [Example 131, 2-((1S,2S)-2-((5-(5-methoxyimidazo[1,2-a]pyridin-7-yl)-2-methylpyrimidin-4-yloxy)methyl)cyclopropyl)quinoline]
0.06 nM	Cc1ncc(-c2cnc3ccccn23)c(OC[C@H]2C[C@@H]2c2ccc3ccccc3n2)n1 [Example 133, 2-((1S,2S)-2-((5-(imidazo[1,2-a]pyridin-3-yl)-2-methylpyrimidin-4-yloxy)methyl)cyclopropyl)quinoline]
0.04 nM	Cc1ncc(-c2ccc3nccn3c2)c(OC[C@H]2C[C@@H]2c2ccc3ccccc3n2)n1 [Example 136, 2-((1S,2S)-2-((5-(imidazo[1,2-a]pyridin-6-yl)-2-methylpyrimidin-4-yloxy)methyl)cyclopropyl)quinoline]
0.63 nM	Cc1ccc([C@H]2C[C@@H]2COc2nc(C)ncc2-c2ccc3nccn3c2)nc1 [Example 137, 6-(2-methyl-4-(((1S,2S)-2-(5-methylpyridin-2-yl)cyclopropyl)methoxy)pyrimidin-5-yl)imidazo[1,2-a]pyridine]
0.23 nM	Cc1ccc([C@H]2C[C@@H]2COc2nc(C)ncc2-c2ccc(C(C)(C)O)nc2C)nc1 [Example 138, 2-(6-Methyl-5-(2-methyl-4-(((1S,2S)-2-(5-methylpyridin-2-yl)cyclopropyl)methoxy)pyrimidin-5-yl)pyridin-2-yl)propan-2-ol]
0.37 nM	Cc1ccc([C@H]2C[C@@H]2COc2nc(C)ncc2-c2ccc(C(O)C(C)C)nc2)nc1 (stereo partly drawn) [Example 139, 2-methyl-1-(5-(2-methyl-4-(((1S,2S)-2-(5-methylpyridin-2-yl)cyclopropyl)methoxy)pyrimidin-5-yl)pyridin-2-yl)propan-1-ol]
0.24 nM	Cc1ccc([C@H]2C[C@@H]2COc2nc(C)ncc2-c2ccc(C(C)O)nc2)nc1 (stereo partly drawn) [Example 141, 1-(5-(2-methyl-4-(((1S,2S)-2-(5-methylpyridin-2-yl)cyclopropyl)methoxy)pyrimidin-5-yl)pyridin-2-yl)ethanol]
0.37 nM	Cc1ccc([C@H]2C[C@@H]2COc2nc(C)ncc2-c2cnc3[nH]ncc3c2)nc1 [Example 142, 5-(2-methyl-4-(((1S,2S)-2-(5-methylpyridin-2-yl)cyclopropyl)methoxy)pyrimidin-5-yl)-1H-pyrazolo[3,4-b]pyridine]
0.16 nM	CCC(O)c1ccc(-c2cnc(C)nc2OC[C@H]2C[C@@H]2c2ccc(C)cn2)cn1 (stereo partly drawn) [Example 143, 1-(5-(2-methyl-4-(((1S,2S)-2-(5-methylpyridin-2-yl)cyclopropyl)methoxy)pyrimidin-5-yl)pyridin-2-yl)propan-1-ol]
0.73 nM	CCC(O)c1ccc(-c2cnc(C)nc2OC[C@H]2C[C@@H]2c2ccc(C)cn2)cn1 (stereo partly drawn) [Example 144, 1-(5-(2-methyl-4-(((1S,2S)-2-(5-methylpyridin-2-yl)cyclopropyl)methoxy)pyrimidin-5-yl)pyridin-2-yl)propan-1-ol]
